Patent publication US20130297040A1, “IMPLANT HAVING A CORE AND A TUBE ENCASING THE CORE” (UNIVERSITE DE LIEGE, priority 2011, published 2013)
Blank lines part the entries; values can stand above or below the molecule they belong to.

Assay: Pharmacokinetic study of celecoxib implants in Wistar rats

concentration of HO-celecoxib in peritoneal liquid, intraperitoneal vs subcutaneous implant (peritoneal liquid): tendency to a higher concentration | concentration of HO-celecoxib in serum, intraperitoneal vs subcutaneous implant (serum): No differences
SMILES: NS(=O)(=O)c1ccc(-n2nc(C(F)(F)F)cc2-c2ccc(CO)cc2)cc1 [HO-celecoxib]
presence of the metabolite HO-celecoxib after implantation (celecoxib implant): present in the rats during more than two years

concentration of HOOC-celecoxib in the serum and in the PF, intraperitoneal vs subcutaneous implant (serum and peritoneal liquid): No differences
SMILES: NS(=O)(=O)c1ccc(-n2nc(C(F)(F)F)cc2-c2ccc(C(=O)O)cc2)cc1 [HOOC-celecoxib]
presence of the metabolite HOOC-celecoxib after implantation (celecoxib implant): present in the rats during more than two years

metabolism of celecoxib (after implantation of celecoxib implant): metabolized in rats
SMILES: Cc1ccc(-c2cc(C(F)(F)F)nn2-c2ccc(S(N)(=O)=O)cc2)cc1 [celecoxib, reference compound]
